These results are taken from patent US20130059907A1, “WOGONIN-CONTAINING PHARMACEUTICAL COMPOSITION FOR INHIBITING CANCER STEM CELLS GROWTH AND APPLICATION THEREOF” (National Taiwan Normal University, priority 2011, published 2013).

For test [1], the system named is A549 cells. Kind of test: Side population analysis (Hoechst33342, with or without reserpine). It counts as cell-based. The settings on record: A549, dose of IC50, 48 hours, FIGS. 5A and 5B. On the procedure: A549 cells were seeded in the number of about 3×10^5 in 10 cm dish to give adequate number of cells for analysis. The cells were treated with the extract of S. baicalensis and the wogonin solution in the dose of IC50 for 48 hours. Then, the treated cells were harvested by typsinization and centrifugation. The harvested cells were re-suspended in the number of 1×10^6 cells/ml in culture medium containing 2% FBS, Hoechst33342 dye (5 μg/ml, Invitrogen, Carlsbad, U.S.A.) was added with or without reserpine (50 μM, Sigma, St. Louis, U.S.A.) as a blocking reagent. The cells were further incubated at 37° C. for 2 hours under frequently gentle vortex to ensure uniform staining, and then washed with PBS. PI staining (20 ng/ml) was used to determine the live/dead cells. In order to set up the fluorescence compensation, single staining and non-staining groups were prepared. The cell samples were filtered with nylon mesh (35 μm) to prevent cell aggregation. PI-positive dead cells were primary excluded to avoid false positive signals. Then, the Hoechst blue and red dot plotting was used to determine the side population. A gate of a side population was defined by the diminishing region of two samples groups, i.e. with or without reserpine. The percentages of the side population were further analyzed by Flowjo software (TreeStar, Ashland, U.S.A.).

Test [2] relates to A549 cells. Kind of test: MTT assay (cell proliferation), A549. It counts as cell-based. The note with it: FIG. 1B. On the procedure:
NSCLC cell lines A549, NCI-H460, NCI-H520 and normal lung cell line MRCS were obtained from Bioresource Collection and Research Center (BCRC, Taiwan). A549 cell line was cultured with F12K medium (21127, GIBCO, Carlsbad, U.S.A.). Both NCI-H460 and NCI-H520 cell lines were cultured with RPMI1640 medium (23400, GIBCO, Carlsbad, U.S.A.). MRCS cell line was cultured with MEM medium (41500, GIBCO, Carlsbad, U.S.A.). All media mentioned above contained 10% FBS (10437, GIBCO, Carlsbad, U.S.A.). All cultures were maintained in an incubator (Thermo forma 370, Waltham, U.S.A.) with 5% CO2 at 37° C.
Cells were seeded at 1×10^4 cells per well in a 24-well plate for 16 hours. After that, a sample such as the wogonin solutions with different concentrations and the extract of S. baicalensis (denoted as “SB”) was added into 24-well plate directly, and cultured at 37° C. for 24, 48, and 72 hours, respectively.
Thiazolyl blue tetrazolium bromide (MTT, m5655, Sigma, St. Louis, U.S.A.) solution was prepared in a concentration of 5.5 mg/ml with phosphate buffered saline (PBS) filtered by 0.22 μm membrane. The MTT solution (50 μl) was added to the wells of 24-well plates with A549, NCI-H460, NCI-H520, and MRCS cell lines cultured after 24, 48, and 72 hours. The plates were incubated at 37° C. for 2 hours and then moved out. The media of the wells were removed. […]
On the technique in general: Tetrazolium dyes change colour on reduction, which living cells bring about.

Molecules are shown by their SMILES.

Take `COc1c(O)cc(O)c2c(=O)cc(-c3ccccc3)oc12` [wogonin solution, wogonin hydrate]: in the test on A549 cells [1], the “side population (SP)” value was “significantly diminished”. The “inhibition of A549 cell line (concentration dependence)” value with A549 cells [2] (A549, 40, 80, 120, and 160 μM, 48 hours) is listed as “increased as the concentration of the wogonin solution increases”. Besides, the IC50 with A549 cells [2] (Homo sapiens, A549, 48 hours, read-out: half maximal inhibitory concentration (IC50)) was around 85 µM.
